The results in this text go back to EP4122499A1, “FIBROBLAST ACTIVATION PROTEIN INHIBITORS AND USE THEREOF” (3B Pharmaceuticals GmbH, priority 2021, dated 2023).

Assay [1] has as its target T1, Human recombinant FAP (Homo sapiens, UniProt Q12884).
T1 sequence (Q12884 1-760): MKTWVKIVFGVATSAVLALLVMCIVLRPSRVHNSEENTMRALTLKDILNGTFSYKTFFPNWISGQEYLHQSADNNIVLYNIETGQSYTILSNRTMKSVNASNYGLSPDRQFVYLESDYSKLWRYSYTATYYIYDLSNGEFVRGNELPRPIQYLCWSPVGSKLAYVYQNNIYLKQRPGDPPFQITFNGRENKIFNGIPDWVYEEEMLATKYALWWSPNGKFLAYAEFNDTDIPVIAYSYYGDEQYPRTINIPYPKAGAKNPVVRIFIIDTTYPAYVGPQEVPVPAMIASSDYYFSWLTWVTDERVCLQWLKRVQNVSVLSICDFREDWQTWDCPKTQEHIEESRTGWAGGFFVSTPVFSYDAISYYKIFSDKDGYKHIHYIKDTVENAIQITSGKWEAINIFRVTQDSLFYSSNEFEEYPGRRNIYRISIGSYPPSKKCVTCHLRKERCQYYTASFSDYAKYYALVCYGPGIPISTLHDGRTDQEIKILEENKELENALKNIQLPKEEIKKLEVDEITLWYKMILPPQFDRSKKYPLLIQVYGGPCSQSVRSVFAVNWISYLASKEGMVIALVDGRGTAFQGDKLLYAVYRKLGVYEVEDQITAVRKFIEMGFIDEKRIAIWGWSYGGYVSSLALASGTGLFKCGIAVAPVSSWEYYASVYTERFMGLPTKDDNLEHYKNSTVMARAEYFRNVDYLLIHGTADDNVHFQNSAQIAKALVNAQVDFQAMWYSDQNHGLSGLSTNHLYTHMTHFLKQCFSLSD
The experiment in a line: FRET-based FAP protease activity assay (human). It counts as biochemical. The conditions noted are these: FRET-peptide substrate, 37°C; for IC50: read-out: pIC50 (Activity) (converted). The arrangement: purchased R&D systems 3715-SE. On the procedure: In order to determine the inhibitory activity a FRET-based FAP protease activity assay was established.
25 µL of a 30 µM substrate solution, diluted in assay buffer, was added. […] Four parameter logistic (4PL) curve fitting and pIC50 calculations were performed using ActivityBase software (IDBS).

In assay [2] the target is T1, Human recombinant FAP. The experiment in a line: Surface plasmon resonance assay (Biacore T200, single cycle kinetics). The format is binding. To be noted: SPR, 25°C; for Kd / pKD (Biacore): 1:1 Langmuir binding model; for Kd: read-out: pKD (Biacore) (converted); for HL [min] (Biacore): half-life. The method in brief:
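Human recombinant FAP (20 µg/mL) was captured on anti-FAP antibody immobilized on a CM5 chip, and compounds were run in single-cycle kinetics at 25 °C in HBST with 0.1% DMSO, starting from 500 nM. Sensorgrams were corrected against a reference flow cell and for baseline drift. kon, koff, KD and t1/2 came from a 1:1 Langmuir fit, with pKD = −log KD.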

The target of assay [3] is T2, FAP-expressing human WI-38 fibroblasts (Homo sapiens, UniProt Q12884).
T2 construct: FAP-expressing human WI-38 fibroblasts (ECACC 90020107) were cultured in EMEM; host or cells: WI-38 human fibroblasts
T2 sequence (Q12884 1-760): T1 sequence (Q12884 1-760)
The experiment in a line: Competitive FACS binding assay (displacement of Cy5-labeled FAP inhibitor 3BP-2935). The conditions noted are these: 3 nM Cy5-labeled 3BP-2935, 4°C, 1 hour.

Turning to `CS(=O)(=O)c1cccc(-c2ccc3nccc(C(=O)NCC(=O)N4CCC[C@H]4C#N)c3c2)c1`, the IC50 in assay [1] was 1 nM. Also, in assay [2], the Kd is 0.398 nM and the “HL [min] (Biacore)” value was 2.5 min. Moreover, the IC50 in assay [3] is 3.98 nM.
`CS(=O)(=O)c1cccc(-c2ccc3c(C(=O)NCC(=O)N4CCC[C@H]4C#N)ccnc3c2)c1`: the IC50 was 2 nM in assay [1] and 6.31 nM in assay [3]. Besides, in assay [2], the Kd is 0.501 nM. For the same compound, in assay [2], the “HL [min] (Biacore)” value was 5.7 min.
The matching figures for `O=C(NCC(=O)N1CCC[C@H]1C(=O)c1nc2ccccc2s1)c1ccnc2ccccc12`: 39.8 nM, 63.1 nM, 3.98 nM and 0.3 min.
Turning to `O=C(NCC(=O)N1CCC[C@H]1C(=O)c1nc2ccccc2o1)c1ccnc2ccccc12`, in assay [1], the IC50 was 1.58 nM. In addition, in assay [2], the Kd is 0.501 nM and the “HL [min] (Biacore)” value was 3.7 min. Further, in assay [3], the IC50 was 6.31 nM.
The like results for `O=C(NCC(=O)N1CCC[C@H]1C(=O)c1nccs1)c1ccnc2ccccc12` were, in that order, 50.1 nM, 12.6 nM, 0.3 min and 100 nM.
The like results for `CS(=O)(=O)c1ccc(-c2ccc3nccc(C(=O)NCC(=O)N4CC(F)(F)C[C@H]4C#N)c3c2)cc1` were, in that order, 0.631 nM, 0.0251 nM, 125 min and 1 nM.
The matching figures for `CS(=O)(=O)c1ccc(-c2ccc3nccc(C(=O)NCC(=O)N4CCC[C@H]4C#N)c3c2)cc1`: 0.631 nM, 0.158 nM, 12 min and 3.98 nM.
Turning to `O=C(O)CN1CCN(CC(=O)O)CCN(CC(=O)N2CCN(CCCOc3ccc4nccc(C(=O)NCC(=O)N5CC(F)(F)C[C@H]5C(=O)c5nc6ccccc6o5)c4c3)CC2)CCN(CC(=O)O)CC1`, the “pIC50 (Activity)” value in assay [1] stood at 8.6. In assay [2], the “pKD (Biacore)” value is on record as 8.6 and the “HL [min] (Biacore)” value is given as 57 min. Moreover, the “pIC50 (FACS)” value in assay [3] worked out at 7.9.
With `N#C[C@@H]1CC(F)(F)CN1C(=O)CNC(=O)c1ccnc2ccc(-c3ccc(S(=O)(=O)CCCNC(=O)CN4CCN(CC(=O)O)CCN(CC(=O)O)CCN(CC(=O)O)CC4)cc3)cc12`, in assay [1], the “pIC50 (Activity)” value is 9.1. Further, in assay [2], the “pKD (Biacore)” value was above 11 and the “HL [min] (Biacore)” value is listed as above 500 min. In assay [3], the “pIC50 (FACS)” value is recorded as 9.2.
The matching figures for `O=C(O)CN1CCN(CC(=O)O)CCN(CC(=O)NCCCNC(=O)c2ccc(-c3ccc4nccc(C(=O)NCC(=O)N5CCC[C@H]5C(=O)c5nc6ccccc6o5)c4c3)cc2)CCN(CC(=O)O)CC1`: 8.8, 10.3, 259.3 min and 8.6.
The like results for `N#C[C@@H]1CC(F)(F)CN1C(=O)CNC(=O)c1cc[n+]([O-])c2ccc(OCCCN3CCN(C(=O)CN4CCN(CC(=O)O)CCN(CC(=O)O)CCN(CC(=O)O)CC4)CC3)cc12` were, in that order, 9, 9.8, 19 min and 8.5.
The like results for `N#C[C@@H]1CC(F)(F)CN1C(=O)CNC(=O)c1ccnc2ccc(-c3ccc(C(=O)NCCCNC(=O)CN4CCN(CC(=O)O)CCN(CC(=O)O)CCN(CC(=O)O)CC4)cc3)cc12` were, in that order, 9.2, above 11, 110 min and 8.9.
With `N#C[C@@H]1CC(F)(F)CN1C(=O)CNC(=O)c1ccnc2ccc(-c3ccc(C(=O)NCCN4CCN(C(=O)CN5CCN(CC(=O)O)CCN(CC(=O)O)CCN(CC(=O)O)CC5)CC4)cc3)cc12`, the “pIC50 (Activity)” value in assay [1] worked out at 9.1. In assay [2], the “pKD (Biacore)” value is given as above 11 and the “HL [min] (Biacore)” value is given as above 500 min. Further, the “pIC50 (FACS)” value in assay [3] came out at 8.7.
On to `CC(C)(C)c1nnc(C(=O)[C@@H]2CCCN2C(=O)CNC(=O)c2ccnc3ccccc23)o1`, for which the IC50 in assay [1] was 3.98 nM. For the same compound, in assay [2], the Kd was 2.51 nM and the “HL [min] (Biacore)” value was 0.4 min. The IC50 in assay [3] was 15.8 nM.
For the compound `N#C[C@@H]1CC(F)(F)CN1C(=O)CNC(=O)c1ccnc2ccc(-c3ccc(C(=O)NCCCNC(=O)CN4CCN(CC(=O)O)CCN(CC(=O)O)CCN(CC(=O)O)CC4)nc3)cc12`, in assay [1], the “pIC50 (Activity)” value is listed as 9.1. Besides, in assay [2], the “pKD (Biacore)” value is above 11 and the “HL [min] (Biacore)” value is above 500 min. For the same compound, the “pIC50 (FACS)” value in assay [3] came to 8.8.
For the compound `N#C[C@@H]1CCCN1C(=O)CNC(=O)c1ccnc2ccc(-c3ccc(C(=O)NCCCNC(=O)CN4CCN(CC(=O)O)CCN(CC(=O)O)CCN(CC(=O)O)CC4)cc3)cc12`, in assay [1], the “pIC50 (Activity)” value is 9. In assay [2], the “pKD (Biacore)” value came to 10.2 and the “HL [min] (Biacore)” value came out at 160 min. In addition, the “pIC50 (FACS)” value in assay [3] is reported as 8.7.
As to `O=C(O)CN1CCN(CC(=O)O)CCN(CC(=O)NCCCNC(=O)c2ccc(-c3ccc4nccc(C(=O)NCC(=O)N5CCC[C@H]5B(O)O)c4c3)cc2)CCN(CC(=O)O)CC1`, the “pIC50 (Activity)” value in assay [1] came out at 8.8. Also, in assay [2], the “pKD (Biacore)” value is above 11 and the “HL [min] (Biacore)” value is reported as above 500 min. Moreover, the “pIC50 (FACS)” value in assay [3] is recorded as 8.9.
As to `CS(=O)(=O)c1cccc(-c2ccc3nccc(C(=O)NCC(=O)N4CC(F)(F)C[C@H]4C#N)c3c2)c1` [drawing 288], in assay [1], the IC50 is 0.631 nM. In addition, in assay [2], the Kd was 0.0794 nM and the “HL [min] (Biacore)” value came out at 29 min. In assay [3], this compound gave an IC50 of 1.58 nM.
The matching figures for `CS(=O)(=O)c1cccc(-c2ccc3c(C(=O)NCC(=O)N4CC(F)(F)C[C@H]4C#N)ccnc3c2)c1` [drawing 289]: 0.794 nM, 0.0794 nM, 29.5 min and 2 nM.
Consider `CS(=O)(=O)c1ccc(-c2ccc3c(C(=O)NCC(=O)N4CCC[C@H]4C#N)ccnc3c2)cc1` [drawing 290], for which the IC50 in assay [1] is 1.58 nM. In addition, in assay [2], the Kd was 0.631 nM and the “HL [min] (Biacore)” value came to 4 min. The compound further had an IC50 in assay [3] of 6.31 nM.
The matching figures for `O=C(NCC(=O)N1CCC[C@H]1C(=O)c1ncco1)c1ccnc2ccccc12` [drawing 297]: 6.31 nM, 2.51 nM, 0.6 min and 12.6 nM.
Consider `O=C(O)CN1CCN(CC(=O)O)CCN(CC(=O)N2CCN(CCNC(=O)c3cccc(-c4ccc5c(C(=O)NCC(=O)N6CCC[C@H]6C(=O)c6nc7ccccc7o6)ccnc5c4)c3)CC2)CCN(CC(=O)O)CC1` [drawing 352], for which the “pIC50 (Activity)” value in assay [1] came out at 8.7. In addition, in assay [2], the “pKD (Biacore)” value is reported as above 11 and the “HL [min] (Biacore)” value is above 500 min. In assay [3], the “pIC50 (FACS)” value is given as 8.4.
The matching figures for `O=C(O)CN1CCN(CC(=O)O)CCN(CC(=O)N2CCN(CCNC(=O)c3cccc(-c4ccc5nccc(C(=O)NCC(=O)N6CCC[C@H]6C(=O)c6nc7ccccc7o6)c5c4)c3)CC2)CCN(CC(=O)O)CC1` [drawing 353]: 8.6, 10.1, 289.5 min and 8.5.
The matching figures for `O=C(O)CN1CCN(CC(=O)O)CCN(CC(=O)N2CCN(CCNC(=O)c3ccc(-c4ccc5nccc(C(=O)NCC(=O)N6CCC[C@H]6C(=O)c6nc7ccccc7o6)c5c4)cc3)CC2)CCN(CC(=O)O)CC1` [drawing 354]: 8.4, 9.1, 10.5 min and 7.9.
The matching figures for `O=C(O)CN1CCN(CC(=O)O)CCN(CC(=O)N2CCN(CCNC(=O)c3ccc(-c4ccc5c(C(=O)NCC(=O)N6CCC[C@H]6C(=O)c6nc7ccccc7o6)ccnc5c4)cc3)CC2)CCN(CC(=O)O)CC1` [drawing 355]: 8.7, above 11, above 500 min and 8.4.
